Usually IC50 stands for the concentration needed to halve the response being measured.

This is an account of results in patent publication US9034899B2, “Aryl, heteroaryl, and heterocycle substituted tetrahydroisoquinolines and use thereof” (Albany Molecular Research, Inc., priority 2009, dated 2015).

The structures appear in SMILES notation.

Experiment [1] addresses hSERT (Homo sapiens (Human), UniProt P31645). The experiment can be described thus: SERT radioligand binding assay ([125I]RTI-55, HEK-293 membranes). The following applies: (+)-enantiomers; read-out: SERT IC50. As to the method:
(§1) The medium was removed from the flasks and the cells rinsed with HBSS without Ca and without Mg. The cells were then incubated for 5-10 minutes in 10 mM Tris-Cl, pH 7.5, 5 mM EDTA before the cells were lifted with a combination of pipetting and scraping, as needed. The cell suspension was collected into centrifuge bottles and homogenized for 30 seconds with a Polytron homogenizer. The suspension was centrifuged for 30 minutes at 32,000×g, 4° C. The supernatant was decanted and the pellet resuspended and homogenized in 50 mM Tris-Cl, pH 7.5, 1 mM EDTA for 10 seconds. The suspension was then centrifuged again for 30 minutes at 32,000×g, 4° C. The supernatant was decanted and the pellet resuspended in 50 mM Tris-Cl, pH 7.5, 1 mM EDTA and briefly homogenized. A Bradford assay (Bio-rad) was performed and the membrane preparation diluted to 2 mg/ml with 50 mM Tris-Cl, pH 7.5, 1 mM EDTA. Aliquots were prepared, and then frozen and stored at −80° C.
Compounds were dissolved in 100% DMSO at a concentration 100 times the desired highest assay concentration, serially diluted 1:3 in 100% DMSO, and 0.4 μl/well of each solution was dispensed to a Nunc polypropylene, round bottom, 384-well plate. […] The contents of the assay plate were then transferred to a Millipore MultiscreenHTS GF/B filter plate which was pretreated with 0.5% PEI for at least one hour. The plate was vacuum filtered and washed with 7 washes of 100 μl/well 50 mM Tris-Cl, pH 7.5, 120 mM NaCl, 5 mM KCl chilled to 4° C. The filtration and washing were completed in less than 90 seconds. The plates were air-dried overnight, 12 μl/well of MicroScint scintillation fluid added, and the plates counted in a Trilux.
Each plate was run in triplicate, and the concentration response curve thus generated was fit using the four-parameter dose response equation, Y=Bottom+(Top-Bottom)/(1+10^((LogIC50−X)*HillSlope)) in order to determine the IC50 value for each compound. The radioligand concentration chosen for each assay corresponds to the Kd concentration determined through saturation binding analysis for each assay.

Experiment [2] has as its target hDAT (Homo sapiens (Human), UniProt Q01959). As to the kind of experiment: DAT radioligand binding assay ([125I]RTI-55, HEK-293 membranes). Particulars: (+)-enantiomers; read-out: DAT IC50. The method, then:
as §1, with “Recombinant HEK-293 cells expressing either the hSERT, hDAT, or hNET proteins were harvested from T-175 flasks as follows. The medium” for “The medium”
Compounds were dissolved in 100% DMSO at a concentration 100 times the desired highest assay concentration, serially diluted 1:3 in 100% DMSO, and 0.4 μl/well of each solution was dispensed to a Nunc polypropylene, round bottom, 384-well plate. 100% inhibition is defined with 0.4 μl/well of 1 mM GBR-12935 dissolved in DMSO. 20 ul/well of a 2× membrane preparation (12.5 μg/ml in 30 mM sodium phosphate buffer, pH 7.9 at 4° C.) and 20 μl/well of a 2× radioligand solution ([…] [^125I]RTI-55 in 30 mM sodium phosphate buffer, pH 7.9 at 4° C.) were added to the well and the reaction incubated for 1 hour at room temperature. The contents of the assay plate were then transferred to a Millipore MultiscreenHTS GF/B filter plate which was pretreated with 0.5% PEI for at least one hour. The plate was vacuum-filtered and washed with 7 washes of 100 μl/well 50 mM Tris-Cl, pH 7.5, 120 mM NaCl, 5 mM KCl chilled to 4° C. The filtration and washing were completed in less than 90 seconds. The plates were air-dried overnight, 12 μl/well of MicroScint scintillation fluid added, and the plates counted in a Trilux.
(§2) The raw data was normalized to percent inhibition using control wells defining 0% (DMSO only) and 100% (selective inhibitor) inhibition which were run on each plate. Each plate was run in triplicate, and the concentration response curve thus generated was fit using the four-parameter dose response equation, Y=Bottom+(Top-Bottom)/(1+10^((LogIC50−X)*HillSlope)) in order to determine the IC50 value for each compound. The radioligand concentration chosen for each assay corresponds to the Kd concentration determined through saturation binding analysis for each assay.

For experiment [3], the target named is hNET (Homo sapiens (Human), UniProt P23975). As to the kind of experiment: NET radioligand binding assay ([3H]nisoxetine, HEK-293 membranes). The following applies: (+)-enantiomers. The method, then:
as §1, with “Recombinant HEK-293 cells expressing either the hSERT, hDAT, or hNET proteins were harvested from T-175 flasks as follows. The medium” for “The medium”
Compounds were dissolved in 100% DMSO at a concentration 100 times the desired highest assay concentration, serially diluted 1:3 in 100% DMSO, and 1.0 μl/well of each solution was dispensed to a Nunc polypropylene, round bottom, 384-well plate. 100% inhibition is defined with 1.0 μl/well of 10 mM desipramine dissolved in DMSO. 50 μl/well of a 2× membrane preparation (0.4 mg/ml in 50 mM Tris-Cl, pH 7.5, 120 mM NaCl, 5 mM KCl) and 50 μl/well of a 2× radioligand solution (4 nM [^3H]nisoxetine in 50 mM Tris-Cl, pH 7.5, 120 mM NaCl, 5 mM KCl) were added to the well and the reaction incubated for 1 hour at room temperature. The contents of the assay plate were then transferred to a Millipore MultiscreenHTS GF/B filter plate which was pretreated with 0.5% PEI for at least one hour. The plate was vacuum filtered and washed with 7 washes of 100 μl/well 50 mM Tris-Cl, pH 7.5, 120 mM NaCl, 5 mM KCl chilled to 4° C. The filtration and washing were completed in less than 90 seconds. The plates were air-dried overnight, 12 μl/well of MicroScint scintillation fluid added, and the plates counted in a Trilux.
as §2

Experiment [4] concerns SERT. As to the kind of experiment: Occupancy assay, ex vivo binding in brain tissue, SERT. The following applies: dose 1 mg/kg, time point 3 h. The text has this: (§3) The general procedure for brain tissue collection and transporter occupancy assessment is briefly described as follows. Mice were sacrificed by asphyxiation in CO2, rats by decapitation and dogs by IV injection of euthanasia solution. For mice and rats, after the brains were removed from the skull, the forebrain tissue (removal of the brainstem and cerebellum) was used for SERT, NET, and DAT occupancy assessment. In dogs, the striatum was dissected for DAT occupancy and the remaining forebrain tissue (without the striatum, brainstem, and cerebellum) was used for SERT and NET occupancy assessment. The brain tissues were frozen in chilled isopentane and stored at −80° C. until homogenization.
(§4) The brain tissues were thawed and then homogenized using a polytron homogenizer (Kinematica). Sample aliquots were frozen immediately and stored at −80° C. Protein content was measured for each sample using a Coomassie protein assay kit (Pierce).
On the day of ex vivo binding for occupancy assessment, frozen sample aliquots were thawed and needle homogenized, and 100 μg of the tissue was incubated for SERT, NET, and DAT binding under assay conditions summarized in Table 2. After incubation, the reactions were terminated by the addition of ice-cold assay buffer and rapid filtration through a Brandel Cell Harvester using FPXLR-196 filters. The filters were washed twice with ice-cold incubation buffer, punched into a clear plate prior to the addition of 200 ul scintillation fluid per well. Radioligand was measured using a Wallac Microbeta liquid scintillation counter.
The specific binding was calculated by subtracting the value of the non-specific binding from that of the total binding in each sample. The percent occupancy was calculated as (1−specific binding in drug treated/specific binding in vehicle treated)×100%. For estimation of in vivo occupancy EC50 (total plasma concentration of compound producing 50% occupancy), plots of occupancy values versus plasma concentrations were fitted to a one-site binding model using nonlinear regression according to the following equation: % Occupancy=Emax*C/(EC50+C) where Emax is the maximal specific binding, C is the drug concentration, and EC50 is the total plasma concentration required for 50% binding site occupancy. Nonlinear regression was performed using GraphPad Prism version 3.00 (GraphPad Software, San Diego, Calif.).

Experiment [5] concerns DAT. The experiment can be described thus: Occupancy assay, ex vivo binding in brain tissue, DAT. Particulars: dose 1 mg/kg, time point 3 h.
From the text: as §3, §4
(§5) On the day of ex vivo binding for occupancy assessment, frozen sample aliquots were thawed and needle homogenized, and 100 μg of the tissue was incubated for SERT, NET, and DAT binding under assay conditions summarized in Table 2. […] The filters were washed twice with ice-cold incubation buffer, punched into a clear plate prior to the addition of 200 ul scintillation fluid per well. Radioligand was measured using a Wallac Microbeta liquid scintillation counter.
(§6) The specific binding was calculated by subtracting the value of the non-specific binding from that of the total binding in each sample. The percent occupancy was calculated as (1−specific binding in drug treated/specific binding in vehicle treated)×100%. […] Nonlinear regression was performed using GraphPad Prism version 3.00 (GraphPad Software, San Diego, Calif.).

Experiment [6] concerns NET. As to the kind of experiment: Occupancy assay, ex vivo binding in brain tissue, NET. Particulars: dose 1 mg/kg, time point 3 h.
From the text: as §3, §4, §5, §6

Experiment [7] relates to Male Swiss Webster mice. The experiment can be described thus: Mouse tail suspension assay. It is filed as in vivo. Particulars: mouse tail suspension study, acute administration. The method, then: Male Swiss Webster mice were housed 3-4 per cage in rooms maintained at a constant temperature (21-23° C.) and humidity (50±10%) on a 12-hour light/dark cycle. Animals had ad libitum access to water and food throughout studies. On the day of testing, they were brought into the testing room and allowed to acclimate for one hour.
To begin testing, the tail was attached to a piece of tape which ias then attached to a hook on the ceiling of a sound-attenuated chamber. Immobility was automatically recorded using the Med Associates software. Compounds were administered acutely at a fixed pretreatment interval before session.

hDAT, sequence (Q01959 whole entry): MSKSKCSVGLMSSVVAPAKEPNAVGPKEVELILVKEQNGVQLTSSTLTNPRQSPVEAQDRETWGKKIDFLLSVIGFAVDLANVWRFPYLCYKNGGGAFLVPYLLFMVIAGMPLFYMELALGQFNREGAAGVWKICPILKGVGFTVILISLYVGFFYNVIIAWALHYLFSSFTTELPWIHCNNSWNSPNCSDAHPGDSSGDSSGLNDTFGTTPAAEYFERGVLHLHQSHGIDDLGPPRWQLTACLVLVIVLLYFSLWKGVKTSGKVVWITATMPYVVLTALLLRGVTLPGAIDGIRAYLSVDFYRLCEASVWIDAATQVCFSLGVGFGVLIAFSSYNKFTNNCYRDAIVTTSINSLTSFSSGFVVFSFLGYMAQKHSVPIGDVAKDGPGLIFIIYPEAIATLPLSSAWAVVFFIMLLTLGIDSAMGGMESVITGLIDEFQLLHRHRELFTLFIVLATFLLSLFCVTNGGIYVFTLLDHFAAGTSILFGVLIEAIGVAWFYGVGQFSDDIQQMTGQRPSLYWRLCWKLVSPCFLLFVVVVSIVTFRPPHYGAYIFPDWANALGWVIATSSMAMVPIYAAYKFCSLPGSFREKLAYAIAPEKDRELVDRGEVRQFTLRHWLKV
hNET, sequence (P23975 whole entry): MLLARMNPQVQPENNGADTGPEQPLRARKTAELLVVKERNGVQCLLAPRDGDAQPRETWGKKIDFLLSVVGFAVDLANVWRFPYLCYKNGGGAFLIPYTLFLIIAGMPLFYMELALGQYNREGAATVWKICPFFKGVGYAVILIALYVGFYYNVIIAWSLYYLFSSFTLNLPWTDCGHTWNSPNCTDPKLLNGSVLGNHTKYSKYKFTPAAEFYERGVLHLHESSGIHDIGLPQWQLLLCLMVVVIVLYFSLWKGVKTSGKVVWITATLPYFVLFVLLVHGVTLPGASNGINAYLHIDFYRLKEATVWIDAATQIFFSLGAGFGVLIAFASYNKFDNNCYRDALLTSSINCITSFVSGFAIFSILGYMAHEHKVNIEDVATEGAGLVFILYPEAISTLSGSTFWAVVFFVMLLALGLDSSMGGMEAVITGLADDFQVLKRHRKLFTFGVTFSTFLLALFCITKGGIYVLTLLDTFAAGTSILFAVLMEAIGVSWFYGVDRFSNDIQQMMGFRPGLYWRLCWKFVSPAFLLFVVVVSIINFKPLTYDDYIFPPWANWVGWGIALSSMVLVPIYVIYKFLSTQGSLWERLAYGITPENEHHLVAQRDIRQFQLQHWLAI
hSERT, sequence (P31645 whole entry): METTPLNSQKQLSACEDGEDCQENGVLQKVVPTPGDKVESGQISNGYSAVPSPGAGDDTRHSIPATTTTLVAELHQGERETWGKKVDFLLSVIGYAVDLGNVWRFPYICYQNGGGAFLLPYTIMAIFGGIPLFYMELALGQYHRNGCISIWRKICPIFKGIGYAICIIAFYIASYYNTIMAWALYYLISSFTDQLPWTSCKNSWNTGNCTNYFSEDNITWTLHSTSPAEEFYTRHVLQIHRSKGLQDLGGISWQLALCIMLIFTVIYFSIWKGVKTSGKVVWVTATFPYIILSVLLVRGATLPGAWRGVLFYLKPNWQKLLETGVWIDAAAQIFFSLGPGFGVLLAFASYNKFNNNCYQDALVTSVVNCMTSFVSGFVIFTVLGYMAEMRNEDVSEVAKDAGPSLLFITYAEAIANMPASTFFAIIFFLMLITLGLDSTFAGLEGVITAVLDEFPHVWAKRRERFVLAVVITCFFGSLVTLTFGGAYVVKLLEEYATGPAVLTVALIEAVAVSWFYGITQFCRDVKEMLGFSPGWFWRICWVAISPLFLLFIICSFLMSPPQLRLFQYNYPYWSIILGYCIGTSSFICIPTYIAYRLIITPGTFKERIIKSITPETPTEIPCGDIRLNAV

`O=c1ccccn1-c1ccc2c(c1)CNCC2c1ccc(Cl)c(Cl)c1` (stereo not shown) [Example 17, 1-(4-(3,4-dichlorophenyl)-1,2,3,4-tetrahydroisoquinolin-7-yl)pyridin-2(1H)-one]: the figures for the half-inhibitory concentration (IC50) in experiment [1], in experiment [2] and in experiment [3] were 6.9 nM, 84.7 nM and 421 nM, respectively.
For `O=c1cccnn1-c1ccc2c(c1)CNCC2c1ccc(Cl)c(Cl)c1` (stereo not shown) [Example 18, 2-(4-(3,4-dichlorophenyl)-1,2,3,4-tetrahydroisoquinolin-7-yl)pyridazin-3(2H)-one] the same measures were 6.1 nM, 29.9 nM and 132 nM.
On the same counts, the results for `O=c1ccc(-c2cc3c(cc2F)C(c2ccc(Cl)c(Cl)c2)CNC3)n[nH]1` (stereo not shown) [Example 22, 6-(4-(3,4-dichlorophenyl)-6-fluoro-1,2,3,4-tetrahydroisoquinolin-7-yl)pyridazin-3(2H)-one] are 39 nM, 37 nM and 63 nM.
On the same counts, the results for `CS(=O)(=O)c1cccc(-c2cc3c(cc2F)C(c2ccc(Cl)c(Cl)c2)CNC3)c1` (stereo not shown) [Example 23, 4-(3,4-dichlorophenyl)-6-fluoro-7-(3-(methylsulfonyl)phenyl)-1,2,3,4-tetrahydroisoquinoline] are 83.6 nM, 101 nM and 283 nM.
`NC(=O)c1ccc(-c2cc3c(cc2F)C(c2ccc(Cl)c(Cl)c2)CNC3)cc1` (stereo not shown) [Example 26, 4-(4-(3,4-dichlorophenyl)-6-fluoro-1,2,3,4-tetrahydroisoquinolin-7-yl)benzamide]: the values for the IC50 in experiment [1], in experiment [2] and in experiment [3] were 24.5 nM, 5.8 nM and 23.3 nM, respectively.
On the same counts, the results for `NC(=O)c1ccc(-c2cc3c(cc2F)C(c2ccc(Cl)cc2)CNC3)cc1` (stereo not shown) [Example 30, 4-(4-(4-chlorophenyl)-6-fluoro-1,2,3,4-tetrahydroisoquinolin-7-yl)benzamide] are 101 nM, 24.5 nM and 215 nM.
Regarding `Clc1ccc(C2CNCc3cc(-c4ccc5ncnn5c4)ccc32)cc1Cl` (stereo not shown) [Example 36, 7-([1,2,4]triazolo[1,5-a]pyridin-6-yl)-4-(3,4-dichlorophenyl)-1,2,3,4-tetrahydroisoquinoline], in experiment [4], the “SERT Occupancy %” value came to 75%. Moreover, in experiment [5], the “DAT Occupancy %” value came out at 26%. In experiment [6], the “NET Occupancy %” value came to 11%. In experiment [7], this compound yielded a minimum effective dose of 10 mg/kg.
